Experimental data as given in PubChem BioAssay (NCI).
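Method: 48-hour compound exposure of cells in 96-well plates, five concentrations, linear interpolation of endpoints. TGI marks complete inhibition of growth.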

What was measured:
Assay in all cases: growth of human tumour cells (NCI), 48 h
NCI-H226 lung = tested on: NCI-H226 lung
NCI/ADR-RES ovarian = tested on: NCI/ADR-RES ovarian
SK-MEL-2 melanoma = tested on: SK-MEL-2 melanoma
BT-549 breast = tested on: BT-549 breast
DU-145 prostate = tested on: DU-145 prostate
SN12C renal = tested on: SN12C renal
SF-295 CNS = tested on: SF-295 CNS
A498 renal = tested on: A498 renal
SF-268 CNS = tested on: SF-268 CNS
A549 NSCLC = tested on: A549 NSCLC
HCT-15 colon = tested on: HCT-15 colon
786-0 renal = tested on: 786-0 renal
KM12 colon = tested on: KM12 colon
EKVX NSCLC = tested on: EKVX NSCLC
PC-3 prostate = tested on: PC-3 prostate
SR leukemia = tested on: SR leukemia
MDA-MB-435 = tested on: MDA-MB-435
SNB-75 CNS = tested on: SNB-75 CNS
RXF 393 renal = tested on: RXF 393 renal
SK-MEL-5 melanoma = tested on: SK-MEL-5 melanoma
LOX IMVI melanoma = tested on: LOX IMVI melanoma
RPMI-8226 leukemia = tested on: RPMI-8226 leukemia
NCI-H23 lung = tested on: NCI-H23 lung
OVCAR-3 ovarian = tested on: OVCAR-3 ovarian
TK-10 renal = tested on: TK-10 renal
UACC-257 melanoma = tested on: UACC-257 melanoma
NCI-H522 lung = tested on: NCI-H522 lung
M14 melanoma = tested on: M14 melanoma
OVCAR-5 ovarian = tested on: OVCAR-5 ovarian
CAKI-1 renal = tested on: CAKI-1 renal
SNB-19 CNS = tested on: SNB-19 CNS
U251 CNS = tested on: U251 CNS
UO-31 renal = tested on: UO-31 renal
SK-OV-3 ovarian = tested on: SK-OV-3 ovarian
IGROV1 ovarian = tested on: IGROV1 ovarian
MDA-MB-231 breast = tested on: MDA-MB-231 breast
T-47D breast = tested on: T-47D breast
UACC-62 melanoma = tested on: UACC-62 melanoma
SW-620 colon = tested on: SW-620 colon
HT29 colon = tested on: HT29 colon
HOP-62 NSCLC = tested on: HOP-62 NSCLC
MDA-N = tested on: MDA-N
OVCAR-4 ovarian = tested on: OVCAR-4 ovarian
CCRF-CEM leukemia = tested on: CCRF-CEM leukemia
K-562 leukemia = tested on: K-562 leukemia
COLO 205 colon = tested on: COLO 205 colon
SK-MEL-28 melanoma = tested on: SK-MEL-28 melanoma
MALME-3M melanoma = tested on: MALME-3M melanoma
HOP-92 NSCLC = tested on: HOP-92 NSCLC
HCT-116 colon = tested on: HCT-116 colon
ACHN renal = tested on: ACHN renal
MOLT-4 leukemia = tested on: MOLT-4 leukemia
OVCAR-8 ovarian = tested on: OVCAR-8 ovarian
HS 578T breast = tested on: HS 578T breast
NCI-H460 lung = tested on: NCI-H460 lung
SF-539 CNS = tested on: SF-539 CNS
HCC-2998 colon = tested on: HCC-2998 colon
HL-60(TB) leukemia = tested on: HL-60(TB) leukemia

Cc1ccc(S(=O)(=O)N2CC2CCCCC=O)cc1 (stereo not drawn)
TGI (NCI-H226 lung): > 100 µM
TGI (NCI/ADR-RES ovarian): > 100 µM
TGI (SK-MEL-2 melanoma): > 100 µM
TGI (BT-549 breast): > 100 µM
TGI (DU-145 prostate): > 100 µM
TGI (SN12C renal): > 100 µM
TGI (SF-295 CNS): > 100 µM
TGI (A498 renal): > 100 µM
TGI (SF-268 CNS): > 100 µM
TGI (A549 NSCLC): > 100 µM
TGI (HCT-15 colon): > 100 µM
TGI (786-0 renal): > 100 µM
TGI (KM12 colon): > 100 µM
TGI (EKVX NSCLC): > 100 µM
TGI (PC-3 prostate): > 100 µM
TGI (SR leukemia): 37.2 µM
TGI (MDA-MB-435): > 100 µM
TGI (SNB-75 CNS): > 100 µM
TGI (RXF 393 renal): > 100 µM
TGI (SK-MEL-5 melanoma): > 100 µM
TGI (LOX IMVI melanoma): 56 µM
TGI (RPMI-8226 leukemia): > 100 µM
TGI (NCI-H23 lung): > 100 µM
TGI (OVCAR-3 ovarian): > 100 µM
TGI (TK-10 renal): > 100 µM
TGI (UACC-257 melanoma): > 100 µM
TGI (NCI-H522 lung): > 100 µM
TGI (M14 melanoma): > 100 µM
TGI (OVCAR-5 ovarian): > 100 µM
TGI (CAKI-1 renal): > 100 µM
TGI (SNB-19 CNS): > 100 µM
TGI (U251 CNS): > 100 µM
TGI (UO-31 renal): > 100 µM
TGI (SK-OV-3 ovarian): > 100 µM
TGI (IGROV1 ovarian): > 100 µM
TGI (MDA-MB-231 breast): > 100 µM
TGI (T-47D breast): > 100 µM
TGI (UACC-62 melanoma): > 100 µM
TGI (SW-620 colon): > 100 µM
TGI (HT29 colon): > 100 µM
TGI (HOP-62 NSCLC): > 100 µM
TGI (MDA-N): > 100 µM
TGI (OVCAR-4 ovarian): > 100 µM
TGI (CCRF-CEM leukemia): 55.1 µM
TGI (K-562 leukemia): > 100 µM
TGI (COLO 205 colon): > 100 µM
TGI (SK-MEL-28 melanoma): > 100 µM
TGI (MALME-3M melanoma): > 100 µM
TGI (HOP-92 NSCLC): > 100 µM
TGI (HCT-116 colon): > 100 µM
TGI (ACHN renal): > 100 µM
TGI (MOLT-4 leukemia): > 100 µM
TGI (OVCAR-8 ovarian): > 100 µM
TGI (HS 578T breast): > 100 µM

CCOC(=O)c1cc(-c2ccc(OC)cc2)c([N+](=O)[O-])n1C
TGI (NCI-H226 lung): > 10 µM
TGI (NCI/ADR-RES ovarian): > 10 µM
TGI (SK-MEL-2 melanoma): > 10 µM
TGI (BT-549 breast): > 10 µM
TGI (DU-145 prostate): > 10 µM
TGI (NCI-H460 lung): > 10 µM
TGI (SN12C renal): > 10 µM
TGI (SF-295 CNS): > 10 µM
TGI (SF-268 CNS): > 10 µM
TGI (A549 NSCLC): > 10 µM
TGI (HCT-15 colon): > 10 µM
TGI (786-0 renal): > 10 µM
TGI (KM12 colon): > 10 µM
TGI (EKVX NSCLC): > 10 µM
TGI (SF-539 CNS): > 10 µM
TGI (SR leukemia): > 10 µM
TGI (MDA-MB-435): > 10 µM
TGI (SNB-75 CNS): > 10 µM
TGI (RXF 393 renal): 4.81 µM
TGI (NCI-H23 lung): > 10 µM
TGI (OVCAR-3 ovarian): > 10 µM
TGI (UACC-257 melanoma): > 10 µM
TGI (NCI-H522 lung): > 10 µM
TGI (M14 melanoma): > 10 µM
TGI (OVCAR-5 ovarian): > 10 µM
TGI (SNB-19 CNS): > 10 µM
TGI (U251 CNS): > 10 µM
TGI (UO-31 renal): > 10 µM
TGI (IGROV1 ovarian): > 10 µM
TGI (UACC-62 melanoma): > 10 µM
TGI (HT29 colon): > 10 µM
TGI (HCC-2998 colon): > 10 µM
TGI (MDA-N): > 10 µM
TGI (OVCAR-4 ovarian): > 10 µM
TGI (CCRF-CEM leukemia): > 10 µM
TGI (K-562 leukemia): > 10 µM
TGI (MALME-3M melanoma): > 10 µM
TGI (HOP-92 NSCLC): > 10 µM
TGI (HCT-116 colon): > 10 µM
TGI (ACHN renal): > 10 µM
TGI (MOLT-4 leukemia): > 10 µM
TGI (HL-60(TB) leukemia): > 10 µM
TGI (OVCAR-8 ovarian): > 10 µM
TGI (HS 578T breast): > 10 µM
